Laboratory results published in patent US5945436A, “Pyridylmethyl nitriles, amides and thioamides useful as fungicides” (Uniroyal Chemical Company, Inc., priority 1997, dated 1999).

Columns and labels:
[1] = system: Colletotrichum gossypii; experiment: Fungal growth inhibition, treated disc on agar (COL GOS); format: cell-based; settings: disc dipped in 500 mg/l, 29° C.
[2] = system: Helminthosporium sativum; experiment: Barley spot blotch, foliar treatment (HEL SAT); format: in vivo; settings: foliar, 1,000 mg/l
Procedure: Compositions containing Compounds Nos. 1-81 were prepared by dissolving 0.24 grams of each of the compounds in 8 ml of acetone or other suitable inert solvent. Each of the resultant solutions was treated with 3 drops of TWEEN 20 (ethoxylated ethylene sorbitan monolaurate, a non-ionic surfactant)(I.C.I.), and water was added to form an emulsion. The degree of dilution with water was dictated by the desired concentration of the compound in the composition. The greater the quantity of water added, the lower the concentration of the compound in the composition, reported in milligrams per liter (mg/l) Ten plants of six day-old Barley (variety "Robust") were planted in each of a plurality of pots. Each pot was then either sprayed with one of the compositions of Example 9, at a concentration of 1,000 mg/l, or left unsprayed. The unsprayed plants were used as controls. An equal number of pots were sprayed and unsprayed. All plants, sprayed and unsprayed, were thereafter inoculated with spores of the blotch fungus Helminthosporium sativum. All inoculated plants were placed in a 99% humidity chamber for 24 hours and then placed in a greenhouse, maintained at a temperature of 21° C., for eight days. […] Percent control was computed and the results are summarized in Table II under the heading "HEL SAT".

[3] = system: Erysiphe polygoni; experiment: Powdery mildew on pinto bean, foliar application (ERY POL); format: in vivo; settings: similar procedure as barley (1,000 mg/l)
Procedure: (§1) Compositions containing Compounds Nos. 1-81 were prepared by dissolving 0.24 grams of each of the compounds in 8 ml of acetone or other suitable inert solvent. Each of the resultant solutions was treated with 3 drops of TWEEN 20 (ethoxylated ethylene sorbitan monolaurate, a non-ionic surfactant)(I.C.I.), and water was added to form an emulsion. The degree of dilution with water was dictated by the desired concentration of the compound in the composition. The greater the quantity of water added, the lower the concentration of the compound in the composition, reported in milligrams per liter (mg/l) Ten plants of "Robust" variety barley were planted in each of a plurality of pots. Each pot was then either sprayed with one of the compositions of Example 9, at a composition concentration of 1,000 mg/l, or left unsprayed. For each pot sprayed, one pot was left unsprayed as a control. After the leaves of the sprayed pots were dried, the sprayed pots and the unsprayed control pots were placed in a greenhouse maintained at 21° C. All the pots were then inoculated with barley powdery mildew fungus, Erysiphe graminis. This inoculation was accomplished by distributing spores of the fungus over the leaves of the plants to be tested from plants which had previously been infected with the mildew disease. […] Again, percent control was computed by comparing the treatment scores with the scores of the untreated controls. The results are summarized in Table II under the heading "ERY GRA". Using a similar procedure as described above for the barley, pinto bean plants were prepared, treated and inoculated with the fungus Erysiphe polygoni. The results of this testing are summarized in Table II under the heading "ERY POL".

[4] = system: Erysiphe graminis; experiment: Powdery mildew of barley, systemic root uptake (BMS); format: in vivo; settings: 45 ml of 250 mg/l, 8 days after inoculation
Procedure: (§2) Compositions containing Compounds Nos. 1-81 were prepared by dissolving 0.24 grams of each of the compounds in 8 ml of acetone or other suitable inert solvent. Each of the resultant solutions was treated with 3 drops of TWEEN 20 (ethoxylated ethylene sorbitan monolaurate, a non-ionic surfactant)(I.C.I.), and water was added to form an emulsion. The degree of dilution with water was dictated by the desired concentration of the compound in the composition. The greater the quantity of water added, the lower the concentration of the compound in the composition, reported in milligrams per liter (mg/l) […] Upon reaching these ages, the plants were either treated with 45 ml of 250 mg/l concentration of the compositions of Example 9 or were left untreated. The untreated plants were used as controls. The 45 ml compositions saturated the soil of the treated pots without significant loss through drainage into the saucers below the pots. Twenty-four hours after the treatment with the compositions, both the barley and cucumber plants in all the pots, those treated and those untreated, were inoculated with powdery mildew fungus. This was accomplished by tapping leaves of previously infected barley and cucumber plants over the treated and untreated pots containing the barley and cucumber plants, respectively, to distribute spores of the fungus over the plants tested. […] Intermediate ratings were assigned depending on the degree of disease. […] The results of the powdery mildew disease control of barley are reported under the heading of "BMS". The results for cucumber mildew control are reported under the heading "CMS".

[5] = system: Botrytis cinerea; experiment: Fungal growth inhibition, treated disc on agar (BOT CIN); format: cell-based; settings: disc dipped in 500 mg/l, 29° C.
[6] = system: Erysiphe graminis; experiment: Powdery mildew in barley, foliar application (ERY GRA); format: in vivo; settings: foliar, 1,000 mg/l, 8 days after inoculation
Procedure: as §1, with “GRA".” for “GRA". Using a similar procedure as described above for the barley, pinto bean plants were prepared, treated and inoculated with the fungus Erysiphe polygoni. The results of this testing are summarized in Table II under the heading "ERY POL".”

[7] = system: Erysiphe cichoracearum; experiment: Powdery mildew of cucumber, systemic root uptake (CMS); format: in vivo; settings: 45 ml of 250 mg/l, 8 days after inoculation
Procedure: as §2

[8] = system: Uromyces phaseoli; experiment: Bean rust fungus eradicant test (URO PHA); format: in vivo; settings: pinto bean, eradicant spray 2 days after inoculation, 1,000 mg/l
Procedure: Compositions containing Compounds Nos. 1-81 were prepared by dissolving 0.24 grams of each of the compounds in 8 ml of acetone or other suitable inert solvent. Each of the resultant solutions was treated with 3 drops of TWEEN 20 (ethoxylated ethylene sorbitan monolaurate, a non-ionic surfactant)(I.C.I.), and water was added to form an emulsion. The degree of dilution with water was dictated by the desired concentration of the compound in the composition. The greater the quantity of water added, the lower the concentration of the compound in the composition, reported in milligrams per liter (mg/l) A plurality of pots were each planted with two pinto bean plants, Phaseolus vulgaris, each, susceptible to rust disease. When the plants were 7 days old, at the primary leaf stage of growth, they were all sprayed with a suspension containing 20,000 spores of the bean rust fungus, Uromyces phaseoli, per ml. All the pots were then incubated in a controlled environmental chamber, maintained at 99% humidity and 21° C., for 24 hours to allow infection to occur. The plants were then removed from the incubator and allowed to dry. Two days after inoculation each of the infected plants was then either sprayed with one of the compositions of Example 9, at a dosage of 1,000 mg/l, or left unsprayed. The unsprayed plants acted as controls. All of the sprayed and unsprayed plants were then placed in a greenhouse at 21° C. for nine days to allow the disease to develop. […] Control of disease was determined by comparing treated plants with the untreated controls. The results, expressed as percent reduction of disease, are summarized in Table II under the heading "URO PHA".

[9] = system: Rhizoctonia solani; experiment: Fungal growth inhibition, treated disc on agar (RHI SOL); format: cell-based; settings: disc dipped in 500 mg/l, 29° C.
Source text: (§3) Filter paper discs, each 11 mm. in diameter, were dipped in each of the test solutions. The discs were allowed to air dry to drive off the acetone solvent. A number of untreated discs were used as controls.
(§4) The treated and untreated discs were then placed on agar plates and one of the following fungus species: Septoria nodorum (SEP NOD), Botrytis cinerea (BOT CIN), Fusarium oxysporum (FUS OXY), Pythium ultimum (PYT ULT), Rhizoctonia solani (RHI SOL), Colletotrichum gossypii (COL GOS), and Scierotinia minor (SCL MIN), was added to the center of each disc in the form of a culture plug with the fungus mat in contact with the paper of the test disc. Cercosporidium personatum (CER PER), was added to discs as a spore suspension (20,000 spores/ml) to the disc (two drops of spore suspension per disc), rather than a mycelial culture plug. The plates were then incubated at 29° C. in an oven.
(§5) With the exception of the discs containing Cercosporidium personatum, the discs were evaluated by first measuring the radius from the center of the fungus colony on the treated discs and on the untreated discs. Percent growth inhibition of each of the compounds tested was determined as a function of the difference between the radius of the fungus colony on the treated disc versus the radius of the fungus colony on the untreated disc.

[10] = system: Pythium ultimum; experiment: Fungal growth inhibition, treated disc on agar (PYT ULT); format: cell-based; settings: disc dipped in 500 mg/l, 29° C.
Source text: as §3, §4, §5

[11] = system: Scierotinia minor; experiment: Fungal growth inhibition, treated disc on agar (SCL MIN); format: cell-based; settings: disc dipped in 500 mg/l, 29° C.
[12] = system: Fusarium oxysporum; experiment: Fungal growth inhibition, treated disc on agar (FUS OXY); format: cell-based; settings: disc dipped in 500 mg/l, 29° C.
[13] = system: Pyricularia oryzae; experiment: whole plant or invertebrate; format: in vivo; settings: barley, foliar, 1,000 mg/l
[14] = system: Septoria nodorum; experiment: Fungal growth inhibition, treated disc on agar (SEP NOD); format: cell-based; settings: disc dipped in 500 mg/l, 29° C.
Source text: as §3, §4, §5

## CCCCC(C#N)(CCc1ccc(OC)cc1)c1ccccn1 (centres unmarked) [Compound 27]
[1]
  Percent Growth Inhibition, COL GOS: 20%
[2]
  Percent Reduction of Disease, HEL SAT: 90%
[3]
  Percent Reduction of Disease, ERY POL: 90%
[4]
  Percent Reduction of Disease, BMS: 0%
[5]
  Percent Growth Inhibition, BOT CIN: 78%
[6]
  Percent Reduction of Disease, ERY GRA: 90%
[7]
  Percent Reduction of Disease, CMS: 0%
[8]
  Percent Reduction of Disease, URO PHA: 100%
[9]
  Percent Growth Inhibition, RHI SOL: 5%
[10]
  Percent Growth Inhibition, PYT ULT: 10%
[11]
  Percent Growth Inhibition, SCL MIN: 93%
[12]
  Percent Growth Inhibition, FUS OXY: 10%
[13]
  Percent Reduction of Disease, PYR ORY: 70%
[14]
  Percent Growth Inhibition, SEP NOD: 10%
